PubChem BioAssay (NCI)
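Briefly, cells in 96-well plates were exposed to five compound concentrations for 48 h, and endpoints were estimated by linear interpolation. The concentration for full growth arrest is given as TGI.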

Experiments:
Assay in all cases: NCI-60 cell line screen, 48 h
HOP-62 NSCLC = tested on: HOP-62 NSCLC
HT29 colon = tested on: HT29 colon
U251 CNS = tested on: U251 CNS
K-562 leukemia = tested on: K-562 leukemia
786-0 renal = tested on: 786-0 renal
HCT-116 colon = tested on: HCT-116 colon
DMS 114 small cell lung = tested on: DMS 114 small cell lung
EKVX NSCLC = tested on: EKVX NSCLC
SK-OV-3 ovarian = tested on: SK-OV-3 ovarian
LXFL 529 NSCLC = tested on: LXFL 529 NSCLC
DMS 273 small cell lung = tested on: DMS 273 small cell lung
KM20L2 colon = tested on: KM20L2 colon
OVCAR-8 ovarian = tested on: OVCAR-8 ovarian
HCT-15 colon = tested on: HCT-15 colon
SK-MEL-2 melanoma = tested on: SK-MEL-2 melanoma
SK-MEL-28 melanoma = tested on: SK-MEL-28 melanoma
CCRF-CEM leukemia = tested on: CCRF-CEM leukemia
ACHN renal = tested on: ACHN renal
M14 melanoma = tested on: M14 melanoma
OVCAR-3 ovarian = tested on: OVCAR-3 ovarian
HOP-92 NSCLC = tested on: HOP-92 NSCLC
UACC-257 melanoma = tested on: UACC-257 melanoma
SF-268 CNS = tested on: SF-268 CNS
M19-MEL melanoma = tested on: M19-MEL melanoma
TK-10 renal = tested on: TK-10 renal
SNB-19 CNS = tested on: SNB-19 CNS
MOLT-4 leukemia = tested on: MOLT-4 leukemia
NCI-H226 lung = tested on: NCI-H226 lung
OVCAR-5 ovarian = tested on: OVCAR-5 ovarian
SF-539 CNS = tested on: SF-539 CNS
HL-60(TB) leukemia = tested on: HL-60(TB) leukemia
CAKI-1 renal = tested on: CAKI-1 renal
OVCAR-4 ovarian = tested on: OVCAR-4 ovarian
SR leukemia = tested on: SR leukemia
XF 498 CNS = tested on: XF 498 CNS
RPMI-8226 leukemia = tested on: RPMI-8226 leukemia
UO-31 renal = tested on: UO-31 renal
SF-295 CNS = tested on: SF-295 CNS
COLO 205 colon = tested on: COLO 205 colon
SNB-78 CNS = tested on: SNB-78 CNS
NCI-H522 lung = tested on: NCI-H522 lung
IGROV1 ovarian = tested on: IGROV1 ovarian
NCI-H23 lung = tested on: NCI-H23 lung
KM12 colon = tested on: KM12 colon
A498 renal = tested on: A498 renal
A549 NSCLC = tested on: A549 NSCLC
LOX IMVI melanoma = tested on: LOX IMVI melanoma
SK-MEL-5 melanoma = tested on: SK-MEL-5 melanoma
SW-620 colon = tested on: SW-620 colon
UACC-62 melanoma = tested on: UACC-62 melanoma
NCI-H460 lung = tested on: NCI-H460 lung
HCC-2998 colon = tested on: HCC-2998 colon
SNB-75 CNS = tested on: SNB-75 CNS
MALME-3M melanoma = tested on: MALME-3M melanoma
SN12C renal = tested on: SN12C renal
DLD-1 colon = tested on: DLD-1 colon
RXF 393 renal = tested on: RXF 393 renal

Compound: CCOC(=O)/C(=C/c1cccc(OC)c1)N(CC)CC
- TGI (HOP-62 NSCLC): > 100 µM
- TGI (HT29 colon): > 100 µM
- TGI (U251 CNS): > 100 µM
- TGI (K-562 leukemia): > 100 µM
- TGI (786-0 renal): > 100 µM
- TGI (HCT-116 colon): > 100 µM
- TGI (DMS 114 small cell lung): > 100 µM
- TGI (EKVX NSCLC): > 100 µM
- TGI (SK-OV-3 ovarian): > 100 µM
- TGI (LXFL 529 NSCLC): > 100 µM
- TGI (DMS 273 small cell lung): > 100 µM
- TGI (KM20L2 colon): > 100 µM
- TGI (OVCAR-8 ovarian): > 100 µM
- TGI (HCT-15 colon): > 100 µM
- TGI (SK-MEL-2 melanoma): > 100 µM
- TGI (SK-MEL-28 melanoma): > 100 µM
- TGI (CCRF-CEM leukemia): > 100 µM
- TGI (ACHN renal): > 100 µM
- TGI (M14 melanoma): > 100 µM
- TGI (OVCAR-3 ovarian): > 100 µM
- TGI (HOP-92 NSCLC): > 100 µM
- TGI (UACC-257 melanoma): > 100 µM
- TGI (SF-268 CNS): > 100 µM
- TGI (M19-MEL melanoma): > 100 µM
- TGI (TK-10 renal): > 100 µM
- TGI (SNB-19 CNS): > 100 µM
- TGI (MOLT-4 leukemia): > 100 µM
- TGI (NCI-H226 lung): > 100 µM
- TGI (OVCAR-5 ovarian): > 100 µM
- TGI (SF-539 CNS): > 100 µM
- TGI (HL-60(TB) leukemia): > 100 µM
- TGI (CAKI-1 renal): > 100 µM
- TGI (OVCAR-4 ovarian): > 100 µM
- TGI (SR leukemia): > 100 µM
- TGI (XF 498 CNS): > 100 µM
- TGI (RPMI-8226 leukemia): > 100 µM
- TGI (UO-31 renal): > 100 µM
- TGI (SF-295 CNS): > 100 µM
- TGI (COLO 205 colon): > 100 µM
- TGI (SNB-78 CNS): > 100 µM
- TGI (NCI-H522 lung): > 100 µM
- TGI (IGROV1 ovarian): > 100 µM
- TGI (NCI-H23 lung): > 100 µM
- TGI (KM12 colon): > 100 µM
- TGI (A498 renal): > 100 µM
- TGI (A549 NSCLC): > 100 µM
- TGI (LOX IMVI melanoma): > 100 µM
- TGI (SK-MEL-5 melanoma): > 100 µM
- TGI (SW-620 colon): > 100 µM
- TGI (UACC-62 melanoma): > 100 µM

Compound: Cc1cc(N(CCC#N)CCC#N)ccc1/C=C1N=C(/C=C/c2ccccc2)OC(=O)N\1
- TGI (HOP-62 NSCLC): > 100 µM
- TGI (HT29 colon): > 100 µM
- TGI (U251 CNS): > 100 µM
- TGI (K-562 leukemia): > 100 µM
- TGI (786-0 renal): > 100 µM
- TGI (HCT-116 colon): > 100 µM
- TGI (DMS 114 small cell lung): > 100 µM
- TGI (EKVX NSCLC): > 100 µM
- TGI (SK-OV-3 ovarian): > 100 µM
- TGI (LXFL 529 NSCLC): > 100 µM
- TGI (DMS 273 small cell lung): > 100 µM
- TGI (KM20L2 colon): > 100 µM
- TGI (OVCAR-8 ovarian): > 100 µM
- TGI (NCI-H460 lung): > 100 µM
- TGI (HCT-15 colon): > 100 µM
- TGI (SK-MEL-2 melanoma): > 100 µM
- TGI (SK-MEL-28 melanoma): > 100 µM
- TGI (HCC-2998 colon): > 100 µM
- TGI (SNB-75 CNS): > 100 µM
- TGI (CCRF-CEM leukemia): > 100 µM
- TGI (ACHN renal): > 100 µM
- TGI (MALME-3M melanoma): > 100 µM
- TGI (M14 melanoma): > 100 µM
- TGI (OVCAR-3 ovarian): > 100 µM
- TGI (UACC-257 melanoma): > 100 µM
- TGI (SF-268 CNS): > 100 µM
- TGI (M19-MEL melanoma): > 100 µM
- TGI (TK-10 renal): > 100 µM
- TGI (SNB-19 CNS): > 100 µM
- TGI (MOLT-4 leukemia): > 100 µM
- TGI (NCI-H226 lung): > 100 µM
- TGI (SN12C renal): > 100 µM
- TGI (OVCAR-5 ovarian): > 100 µM
- TGI (SF-539 CNS): > 100 µM
- TGI (HL-60(TB) leukemia): > 100 µM
- TGI (DLD-1 colon): > 100 µM
- TGI (CAKI-1 renal): > 100 µM
- TGI (RXF 393 renal): > 100 µM
- TGI (XF 498 CNS): > 100 µM
- TGI (RPMI-8226 leukemia): > 100 µM
- TGI (UO-31 renal): > 100 µM
- TGI (SF-295 CNS): 41.3 µM
- TGI (COLO 205 colon): > 100 µM
- TGI (SNB-78 CNS): > 100 µM
- TGI (NCI-H522 lung): > 100 µM
- TGI (IGROV1 ovarian): > 100 µM
- TGI (NCI-H23 lung): > 100 µM
- TGI (KM12 colon): > 100 µM
- TGI (A498 renal): > 100 µM
- TGI (A549 NSCLC): > 100 µM
- TGI (LOX IMVI melanoma): > 100 µM
- TGI (SK-MEL-5 melanoma): > 100 µM
- TGI (SW-620 colon): > 100 µM
- TGI (UACC-62 melanoma): > 100 µM
